Laboratory results reported in a melting point compilation (Tetko et al.; mined from patent text by program, amines drawn as free bases though some values may be those of a salt).

Row | melting point [°C] | SMILES
1 | 100 to 102 | O=[N+]([O-])c1cccc(S(=O)(=O)N(CCO)CCO)c1
2 | 223 | Cc1nc(-c2cccc(Cl)c2)c2cc(C(O)(c3ccc(Cl)cc3)c3cncn3C)ccc2n1 (stereo unspecified)
3 | 115 to 117 | CCCCCCCCCCCCCCCCCCOc1cc(N)cc(NC(C)=O)c1
4 | > 360 | O=c1c2c[nH]c3ccccc3c-2nn1-c1ncccn1
5 | 85 to 88 | CCCCCN=C1SC(=CC(=O)O)C(=O)N1CCCCC
6 | 228 to 229 | COc1ccc2cn[nH]c(=O)c2c1
7 | 196 to 197 | COc1ccccc1N1CCN(CCn2c(=O)[nH]c3sc(C)c(C)c3c2=O)CC1
8 | 135 to 138 | N=C(N)Nc1cc(Cl)ccc1N1CCOCC1
9 | 224 to 226 | CC1(C)OC(=S)Nc2ccc(-c3cccc([N+](=O)[O-])c3)cc21
10 | 159 to 160 | COc1ccc(C2(C)C(=O)c3c(Cl)cc(Cl)cc3N(Cc3ccccc3)C2=O)cc1 (stereo unspecified)
11 | 120 to 127 | Oc1ccc(-c2ncn(CC(O)(Cn3cncn3)c3ccc(F)cc3F)n2)cc1 (stereo unspecified)
12 | 88 to 90 | CSC(=S)Oc1cnc(C)c2c1COC(C)(C)O2
13 | 38.8 | CCCCCCCCCCCCCCCCN(CC(O)CO)C(=O)CCCCC (stereo unspecified)
14 | 234 to 235 | CCC(CC)OC(=O)c1ccc(C(=O)NS(=O)(=O)c2ccc(C(=O)NCCc3ccccc3)cc2)cn1
15 | 180 to 182 | CCn1c2ccccc2c2cc(C(C#N)=C(C#N)c3ccc(C(F)(F)F)cc3)ccc21
16 | 182 to 183 | CN(C)C1CCN(C(=O)C2CCC(Nc3nccc(-n4ccc5c(OCCCS(C)(=O)=O)cccc54)n3)CC2)CC1 (stereo unspecified)
17 | 225 to 228 | O=C(CCC1c2ccccc2-c2ccccc21)Nc1ccc(C(=O)O)c(O)c1
18 | 117 to 118 | CCCCCCCCCCCCCCCCCCOc1ccc(C(=O)O)o1
19 | 142 to 143 | CCCCc1oc2ccccc2c1C(=O)NCc1ccc2cc(OCC(=O)OC)ccc2c1
20 | 169 to 171 | c1ccc(C2OC3(CCNCC3)N3CCCCC23)cc1 (stereo unspecified)
21 | 98 to 99 | CCc1cc2c(cc1CCSCC(N)=O)OCO2
22 | 74.6 | O=C(O)CCS(=O)(=O)O
23 | 204 | Cc1nc2cccc(OCC(C)C)c2c(N)c1C(=O)O
24 | 139 to 141 | CC(C)(C(N)=O)c1ccc(Br)cc1

Row | melting point [°C] | SMILES
25 | 229 to 230 | O=C1NC(=O)C(c2c[nH]c3ccccc23)N1 (stereo unspecified)
26 | 140 to 142 | Cc1cccc(Nc2cc(Cl)nc(S(C)(=O)=O)n2)c1C
27 | 203 to 205 | CCOC(=O)c1cn(-c2nc(NC(C)(C)C)c(F)cc2F)c2c(Cl)c(F)c(F)cc2c1=O
28 | 165 to 166 | Cn1cc(CC#N)c2cc([N+](=O)[O-])ccc21
29 | 276 to 278 | Nc1nc(-c2ccccc2)c(F)c(=O)[nH]1
30 | 157 to 158 | O=C(C=Cc1ccc2c(c1)OCO2)C1C(=O)CC(c2ccccc2)CC1=O (stereo unspecified)
31 | 233 | NC(=O)c1cc(COc2nnc(Nc3ccc(Cl)cc3)c3ccsc23)ccn1
32 | 176 to 178 | O=C1c2ccc(C#Cc3cccc4ccccc34)cc2C(=O)N1c1ccccc1
33 | 168 to 170 | COc1ccnc(CCc2nc3cccnc3n2-c2ccc(OCc3ccccc3)c(F)c2)c1
34 | 201 to 203 | COc1ccc(-c2cc3cc(F)c(F)cc3[nH]2)cc1NC(=S)Nc1ccc(C(=O)O)cc1
35 | 39 to 42 | CON(C)C(=O)c1ccoc1
36 | 241 to 243 | O=c1cc(O)n(-c2cccc(C(F)(F)F)c2)nc1-c1ccnn1-c1ccccc1
37 | 29 | CCCCCCCCCCCC(=O)CC(=O)OC
38 | 85 to 87 | CN1C(=O)C(c2cccc(OCc3ccccc3)c2)(c2cnn(CC(F)(F)F)c2)N=C1N (stereo unspecified)
39 | 55 | CC=CC(=O)Oc1cc(C)nc(C(Cl)(Cl)Cl)n1
40 | 77 to 81 | COc1ccc(C(C)C)cc1-c1cc(-c2nnnn2C2CCN(C(=O)OC(C)(C)C)CC2)c(OCc2ccccc2)cc1OCc1ccccc1
41 | 168 to 169 | COc1ccc(C2CC3(C)C(CC45OCCOC43OCCO5)C3CC(C)C4(O)CCCCC4C23)cc1 (stereo unspecified)
42 | 85 to 88 | Cc1ccc(S(=O)(=O)NC[C@H](C)NCc2c(Cl)ccc([N+](=O)[O-])c2Cl)cc1
43 | 99 to 100 | CCc1nc(NC)nc2c1ncn2C1CC(F)C(CO)O1 (stereo unspecified)
44 | 143 to 144 | CCOP(=O)(/C=C/C=C/c1cn(-c2ccccc2)nc1OCc1ccc(OCc2nc(-c3ccco3)oc2C)c(OC)c1)OCC
45 | 72 to 75 | CCc1noc(C)c1C(C)=NNc1ccccc1
46 | 115 to 117 | O=C(C=Cc1cccs1)C=Cc1cccs1
47 | 140 to 142 | Cc1c(F)cccc1Cc1c(-c2ccccc2)c2cccnn2c1C(=O)N1CCNCC1
48 | 144 | c1ccc2c3c([nH]c2c1)C(c1ccc2c(c1)OCCO2)NCC3 (stereo unspecified)

Row | melting point [°C] | SMILES
49 | 134 | COc1ccc2cc(S(=O)(=O)Cl)cc(OC)c2c1
50 | 149 to 150 | N#Cc1ccc(-c2ccc(-c3ccn([C@H](CC(=O)OCc4ccccc4)C(=O)N[C@H](CO)Cc4ccccc4)c3)cc2)cc1
51 | 144 to 146 | CC#CCOc1ccc(S(=O)(=O)N(C)C(CCCSc2ccc(Cl)cc2)C(=O)NO)cc1 (stereo unspecified)
52 | 116 to 117 | CCCOc1ccc(C(=O)CCC(=O)O)cc1
53 | 171 to 172 | Cc1cc([N+](=O)[O-])c(NC(C)C(=O)N(C)O)c([N+](=O)[O-])c1 (stereo unspecified)
54 | 107 to 110 | C#CCN(Cc1ccc2nc(Cl)c(N)cc2c1)c1ccc(C(=O)N[C@@H](CCC(=O)O)C(=O)O)c(F)c1
55 | 97 to 99 | COC(=O)c1ccccc1NC(=O)CCl
56 | 170 | CNC(=O)c1ccc(-n2nc(C(=O)NC3(C(=O)O)C4CC5CC(C4)CC3C5)cc2-c2c(OC)cccc2OC)c2ccccc12 (stereo unspecified)
57 | 110 to 115 | O=C(NC1(C(=O)O)CCOCC1)OCc1ccccc1
58 | 178 to 180 | COC(=O)c1sc2ccccc2c1NC(C)=O
59 | 172 to 173 | CC1CC1C(=O)Nc1ccc(-n2nc(C(F)(F)F)cc2C(F)(F)F)cc1 (stereo unspecified)
60 | 205 to 207 | CC(C=CC=C(C)C=CC1=C(C)C(=O)CCC1(C)C)=CC=CC=C(C)C=CC=C(C)C=CC1=C(C)C(=O)CCC1(C)C
61 | 124 to 126 | C=CCOc1ccc2c(C)cc(=O)oc2c1C(=O)C=Cc1cccnc1
62 | 156 to 158 | OC(CNC1=NCCN1)c1ccc(Cl)cc1 (stereo unspecified)
63 | 113 to 116 | CCCC[C@H](NC(=O)[C@H](CC(C)C)NC(=O)c1coc2ccccc12)C(=O)CSCc1ccco1
64 | 85 to 86 | COC(=O)C=Cc1ccc(OC)cc1
65 | 202 to 203 | Cc1ccc2c(c1)OC(C(F)(F)F)C(C(=O)O)=C2 (stereo unspecified)
66 | 120 to 122 | CC(C(N)=O)c1ccc(N)cc1 (stereo unspecified)
67 | 118 to 119 | O=C(O)CCCc1ccc(-c2ccccc2)cc1
68 | > 300 | O=Cc1c[nH]c2ncc(-c3cccc(N4CCN(C(=O)C5CCNCC5)CC4)c3)nc12
69 | 165 to 168 | CC(=CCCC(C)C1CCC2(C)C3=CCC4C(C)(CCC5(OCCO5)C4(C)C)C3=CCC12C)CO (stereo unspecified)
70 | 105 to 107 | CCN(CC)CCCCC(=O)c1cc(Cl)c(N)cc1OCc1cc(OC)cc(OC)c1
71 | 230 to 233 | O=C1N=C(N2CCNCC2)SC1=Cc1cccc(-c2cc(F)c(O)c(C34CC5CC(CC(C5)C3)C4)c2)c1
72 | 73 to 75 | CNc1nnc(SCc2ccccn2)s1

Row | melting point [°C] | SMILES
73 | 196 to 198 | NC(=O)C(OC(=O)Nc1cccc(Cl)c1)(C(N)=O)c1ccccc1
74 | 106 to 107 | CCCc1c(OCCCOc2ccc(C(=O)CCCCC(=O)O)cc2F)ccc(C(C)=O)c1O
75 | 135 to 136 | COc1ccc2ccc3ccc(C=O)c4ccc1c2c34
76 | 162 to 168 | COc1ccccc1N(CCN1CCC(C(=O)c2ccc(F)cc2)CC1)S(=O)(=O)C1=CCC(=NO)C=C1
77 | 128 to 129 | CCOC(=O)C(=Cc1ccccn1)C(=O)c1ccc(F)cc1
78 | 238 to 239 | O=C(O)c1cc(Br)cc2c1NCCC2C(=O)O (stereo unspecified)
79 | 150 to 151 | CCCN(Cc1cccc(-c2noc(C)n2)c1)C(=O)Nc1ccc(-c2ccccc2S(=O)(=O)NC(C)(C)C)cc1
80 | 106 | Cn1c(CON)ncc(O)c1=O
81 | 136 to 138 | CC(=O)NCC1CN(c2cccc(Cl)n2)C1
82 | 119 to 121 | CN(C)C(=O)CC(C)(C)C(=O)O
83 | 146 to 149 | C[Si](C)(C)CCCNC(=O)n1cc(F)c(=O)[nH]c1=O
84 | 159 to 160 | Cc1c(NC(=O)c2ccc(-c3ccc(F)cc3)cc2F)ccc2cc(CN3CCCCCC3)cnc12
85 | 227 to 228 | Cc1cc(C(=O)Nc2cnccc2C)c2c(C)nn(-c3ccccc3)c2n1
86 | 145 to 146 | CCCCS(=O)C1CC(=O)N1CC(=O)CCc1ccccc1 (stereo unspecified)
87 | 74 to 83 | CC(=O)NCCCC(=NNC(N)=S)c1ccccc1
88 | 75 to 77 | C[C@H](COS(C)(=O)=O)N1C(=O)c2ccccc2C1=O
89 | 158 to 159 | CCOCc1nc2c(N)nc3cc(-c4ccccc4)cnc3c2n1CC(C)(C)O
90 | 127 to 129 | O=S1NC(Cc2cc3ccccc3s2)=NO1 (stereo unspecified)
91 | 112 | CSc1nc2c(n1-c1ccccc1)CCCC2
92 | 211 to 214 | Cc1ccc(C=NNc2ncnc3ccccc23)cc1
93 | 154 | CCN1c2ncc(CC(=O)c3ccncc3)cc2C(=O)N(C)c2ccc(Cl)nc21
94 | 123 to 130 | O=C(NCCOc1ccc(-c2noc(=O)[nH]2)cc1)C1Cc2ccccc2N1S(=O)(=O)c1ccc(-c2cccc(C(F)(F)F)c2)cc1 (stereo unspecified)

Row | SMILES | melting point [°C]
95 | CN1Cc2c(C#CC3(O)CCC3)ncn2-c2ccc(F)cc2C1=O | 177 to 179
96 | CC(C)(C)O[C@@H]1C[C@H]2C(=O)O[C@H](C(Cl)(Cl)Cl)N2C1 | 147
97 | O=C(Nc1nc(Cc2ccccc2)c(C(=O)c2sc(NC(=O)Oc3ccccc3)nc2Cc2ccccc2)s1)Oc1ccccc1 | > 285
98 | CNC(=O)ON=C(C(=O)N(C)C)C(C)=NOC | 172 to 173
99 | Cc1nc(C=Cc2nc3ccc(F)cc3c(=O)n2-c2cccnc2C)cs1 | 223 to 224
100 | CN1CC=C(c2cc3ccccc3c(=O)[nH]2)CC1 | 222 to 223
101 | CC(=O)C1CCC2C3CCC4CC(O)C(F)CC4(C)C3C(=O)CC12C (stereo unspecified) | 174 to 178
